Assay [1] concerns hippocampus progenitor cells. The experiment in a line: Hippocampal neurogenesis (BrdU-positive cells), 2 weeks of treatment. In kind it is in vivo, mouse. The note with it: 10 μM propeptide injected for 2 weeks. As for the experimental part:
Treatments with antidepressants are known to increase neurogenesis in the hippocampus (Santarelli, L., Saxe, M, Gross, C, Surget, A, Battaglia, F, Dulawa, S, Weisstaub, N, Lee, J, Duman, R, Arancio, O, Belzung, C, Hen, R et al. “Requirement of hippocampal neurogenesis for the behavioral effects of antidepressants” Science, 301: 805-809 (2003) (24). This cellular proliferation is measured from the increase of “progenitor” cells that incorporate a marker, 5-bromo-2-deoxyuridine (BrdU), and are transformed to mature neurons. The BrdU is detected by immunohistochemistry.
On day 1, the animals are injected IP with 300 μl of an aqueous solution of 10 mM of BrdU, then put back in the cage.
On day 2, the animals are euthanased and then the tissues are fixed by intracardiac perfusion of a cold solution of 4% paraformaldehyde. The brains are removed and then frozen at −20° C.
Series of 40 μm sections are prepared, so as to cover the entire hippocampal structure, using a vibratome (Leica). One section out of six is retained for measuring the incorporation of BrdU by means of a monoclonal mouse anti-BrdU antibody (Becton Dickinson). […] The peroxidase activity is visualized by hydrolysis of DAB. The cells labeled in this way are counted on each section. […]

The target in a further assay is T1, TREK-1 channel (Homo sapiens, UniProt O95069).
T1 construct: expressed in transfected cells; host or cells: COS-7 cells (ATCC CRL-1651), DEAE-dextran transfection
T1 sequence (O95069 1-426): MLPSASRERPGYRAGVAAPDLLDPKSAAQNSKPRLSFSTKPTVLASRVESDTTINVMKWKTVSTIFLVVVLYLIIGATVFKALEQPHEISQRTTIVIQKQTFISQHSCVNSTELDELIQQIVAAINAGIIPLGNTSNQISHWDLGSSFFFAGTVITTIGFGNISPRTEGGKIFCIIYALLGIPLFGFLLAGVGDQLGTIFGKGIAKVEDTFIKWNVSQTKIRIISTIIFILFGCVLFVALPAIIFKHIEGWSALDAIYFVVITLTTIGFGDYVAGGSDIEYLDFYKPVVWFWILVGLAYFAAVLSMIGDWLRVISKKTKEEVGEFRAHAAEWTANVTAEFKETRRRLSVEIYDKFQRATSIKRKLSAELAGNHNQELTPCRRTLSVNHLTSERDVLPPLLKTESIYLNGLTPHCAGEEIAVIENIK
Put plainly: Whole-cell patch clamp of TREK-1 channel activity in transfected COS-7 cells. Format: cell-based. The method, then: All the experiments for measuring the effect of the propeptide were conducted on COS-7 cells (cell line derived from kidney fibroblasts of African green monkey Cercopithecus aethiops). These cells are sown at a density of 20 000 cells/dish with diameter of 35 mm, 24 hours before being transfected by the DEAE-dextran method with 1 μg of pIRES-EGFP-TREK-1 plasmid. Measurements of current were taken 48 to 72 hours after transfection.
Culture of the COS-7 cells. The COS-7 cells (ATCC reference: CRL-1651) are cultivated in DMEM medium (Gibco)/10% fetal calf serum (FCS, ICN), at 37° C. in the presence of 5% CO2.
Transfection using DEAE dextran. On day 1, the COS-7 cells are sown at 20 000 cells per 35-mm diameter dish containing 2 ml of culture medium. On day 2, the medium is removed and the cells are covered with 200 μl of PBS (Gibco) containing 1 μg of pIRES-EGFP-TREK-1 plasmid and 100 μg of DEAE-dextran (Sigma) then placed at 37° C./5% CO2. After incubation for 30 minutes, 2 ml of medium DMEM/10% NuSerum/80 μM chloroquin is added. After 3 hours, the medium is replaced with 2 ml of DMEM/10% FCS and the cells are incubated for 48 to 72 hours before being measured by electrophysiological methods.
Electrophysiological measurements: all the measurements are taken at room temperature, i.e. at 21-22° C. The cells that were transfected by the plasmid are detected from the fluorescence emitted by the EGFP after excitation at 480 nm.
The whole-cell patch clamp technique was used for measuring the activity of the TREK-1 channels. The equipment used is the RK 400 patch-clamp amplifier (Axon Instruments, U.S.A.). The patch pipettes with resistance of 1.3 to 8 MΩ are prepared from capillaries of borosilicate glass and are filled with a solution of 155 mM KCl, 3 mM MgCl2, 5 mM EGTA, 10 mM HEPES/KOH pH 7.2.
The cell culture medium is replaced with a solution of 150 mM NaCl, 5 mM KCl, 3 mM MgCl2, 1 mM CaCl2, 10 HEPES/NaOH pH 7.4 containing 10 mM tetraethyl ammonium chloride, 3 mM of 4-aminopyridin. The cells are perfused continuously with this solution. The rest potential of the membrane of the measured cell is fixed at −80 mV.
The variations in voltage are obtained either with a continuous ramp (from −100 to +50 mV) or by potential jumps of 10 mV (from −100 to +40 mV, 1.5 second per jump).
The data obtained were analyzed with the Pclamp software. The currents described in the appended FIG. 2B were obtained at 0 mV, the results expressed are the mean values±standard deviation. The IC50 value was obtained by plotting the experimental data with a sigmoidal function.
The activity of the channel is then measured by the patch-clamp technique in whole-cell configuration as described above.
A general note: Patch clamp records ionic current or voltage across a cell membrane.

No end group written: not given here.

The text below walks through data of patent US8252748B2, “Peptide derived from neurotensin receptor 3 and use thereof in the treatment of psychiatric diseases” (Centre National de la Recherche Scientifique—CNRS, priority 2007, dated 2012).

In general, inhibition refers to the share of the control response that was lost under treatment.

As for “APLPRWSGPIGVSWGLR [propeptide, APLPRWSGPIGVSWGLR]”, the “neurogenesis (BrdU-labeled cells)” value in assay [1] is given as “considerable neurogenesis comparable to that induced by fluoxetine”. For the same sequence, the “current density at 0 mV” value turned out to be 56 pA/pF on TREK-1 channel (10 μM arachidonic acid plus 100 μM of propeptide (130 pA/pF without propeptide)) and 23 pA/pF at TREK-1 channel (baseline conditions, 100 μM of propeptide (control 31 pA/pF)). Besides, on TREK-1 channel (COS-7, read-out: inhibition of channel activity measured at 0 mV), the inhibition at 100 µM turned out to be 25%. Besides, the IC50 on TREK-1 channel (activated by 10 μM arachidonic acid, measured at 0 mV, read-out: half-effect concentration (IC50) of inhibition of TREK-1 channel activity) was found to be 0.0707 µM. Besides, the “activation of TREK-1 by arachidonic acid” value at TREK-1 channel (electrophysiology, FIG. 2) is recorded as “blocked”.
